Data: patent US20080292561A1, “Pyrazolo-Pyrimidine Derivatives as Anti-Inflammatory Agents” (Glaxo Group Limited, priority 2005, published 2008)

Tested on: NFkB activity
Test: Glucocorticoid mediated transrepression of NFkB activity (A549 cells, ELAM promoter alkaline phosphatase reporter, TNFα)
Format: cell-based
Conditions: Homo sapiens, A549, 16 h, Human A549 lung epithelial cells, 3 ng/ml human recombinant TNFα, read-out: pIC50, transrepression of NFkB activity (converted)
From the text: Human A549 lung epithelial cells were engineered to contain a secreted placental alkaline phosphatase gene under the control of the distal region of the NFkB dependent ELAM promoter as previously described in Ray, K. P., Farrow, S., Daly, M., Talabot, F. and Searle, N. “Induction of the E-selectin promoter by interleukin 1 and tumour necrosis factor alpha, and inhibition by glucocorticoids” Biochemical Journal (1997) 328: 707-15.
Compounds were solvated and diluted in DMSO, and transferred directly into assay plates such that the final concentration of DMSO was 0.7%. Following the addition of cells (40K per well), plates were incubated for 1 hr prior to the addition of 3 ng/ml human recombinant TNFα. Following continued incubation for 16 hr, alkaline phosphatase activity was determined by measuring the change in optical density at 405 nm with time following the addition of 0.7 volumes of assay buffer (1 mg/ml p-nitrophenylphosphate dissolved in 1M diethanolamine, 0.28M NaCl, 0.5 mM MgCl2). Dose response curves were constructed from which EC50 values were estimated.

| SMILES | IC50 [nM] |
| --- | --- |
| COc1ccc(F)cc1C(C)(C)CC(O)(CNc1nc(C)nc2c1cnn2-c1cccnc1)C(F)(F)F (stereo not shown) [Example 17, 1,1,1-Trifluoro-4-[5-fluoro-2-(methyloxy)phenyl]-4-methyl-2-({[6-methyl-1-(3-pyridinyl)-1H-pyrazolo[3,4-d]pyrimidin-4-yl]amino}methyl)-2-pentanol] | < 100 |
| Cc1nc(NCC(O)(CC(C)(C)c2cccc3c2OCC3)C(F)(F)F)c2cnn(-c3ccccc3F)c2n1 (stereo not shown) [Example 2, 4-(2,3-Dihydro-1-benzofuran-7-yl)-1,1,1-trifluoro-2-({[1-(2-fluorophenyl)-6-methyl-1H-pyrazolo[3,4-d]pyrimidin-4-yl]amino}methyl)-4-methyl-2-pentanol] | < 100 |
| COc1ccc(F)cc1C(C)(C)CC(O)(CNc1nc(C)nc2c1cnn2-c1ccc(F)cc1)C(F)(F)F (stereo not shown) [Example 15, 1,1,1-Trifluoro-4-[5-fluoro-2-(methyloxy)phenyl]-2-({[1-(4-fluorophenyl)-6-methyl-1H-pyrazolo[3,4-d]pyrimidin-4-yl]amino}methyl)-4-methyl-2-pentanol] | < 100 |
| Cc1nc(NCC(O)(CC(C)(C)c2cccc3c2OCC3)C(F)(F)F)c2cnn(-c3ccc(F)cc3F)c2n1 (stereo not shown) [Example 4, 2-({[1-(2,4-Difluorophenyl)-6-methyl-1H-pyrazolo[3,4-d]pyrimidin-4-yl]amino}methyl)-4-(2,3-dihydro-1-benzofuran-7-yl)-1,1,1-trifluoro-4-methyl-2-pentanol] | < 100 |
